Here are results for 3 molecules from article PMC7948648 (The Journal of Biological Chemistry, 2021).

The conditions of data set [1]: clinical dose of 1 mg once a day; cited from earlier work.
The test system of the next data set is TNKS1. Nature of the data set: Biotin probe competition pulldown in NCI-H1048 cell lysate, Western blot for TNKS1. The following applies: talazoparib versus olaparib, 30 min pretreatment, biotin probes. A general note: A western blot detects proteins with antibodies after separation by electrophoresis.
Another data set deals with T1, PARP1.
T1 construct: To assess if these observations extend to endogenous cellular settings; endogenous in cells; host or cells: NCI-H1048 cell lysate
Also on record: method as in PMID 28001384. The following applies: selectivity PARP1 over TNKS1; cited from earlier work.

Data set [2] deals with the molecule itself. As to the kind of experiment: crystal structure; TNKS1 ART domain, apo and with talazoparib, olaparib, niraparib or veliparib; sitting-drop vapor diffusion at 4 °C; several crystal forms with multiple molecules in the asymmetric unit.

Take `Cn1ncnc1[C@H]1c2n[nH]c(=O)c3cc(F)cc(c23)N[C@@H]1c1ccc(F)cc1` [Talazoparib, talazoparib]: in data set [1], the free plasma concentration is recorded as approximately 17 nM. Besides, in the data set with TNKS1, the “greater ability to prevent binding to TNKS1” value was “approximately 1000 fold”.
On to `CN(C)CC(=O)Nc1ccc2[nH]c(=O)c3ccccc3c2c1` [PJ34], for which the “fold lower IC50 for PARP1 than for TNKS1” value in the data set on PARP1 is reported as “over 25 fold”.

B1: tankyrase1 (TNKS1) ART domain (residues 1104-1314) (domain or fragment, UniProt O95271 1104-1314, looked up)
chain: QGTILLDLAPEDKEYQSVEEEMQSTIREHRDGGNAGGIFNRYNVIRIQKVVNKKLRERFCHRQKEVSEENHNHHNERMLFHGSPFINAIIHKGFDERHAYIGGMFGAGIYFAENSSKSNQYVYGIGGGTGCPTHKDRSCYICHRQMLFCRVTLGKSFLQFSTMKMAHAPPGHHSVIGRPSVNGLAYAEYVIYRGEQAYPEYLITYQIMKPE
notes: tankyrase1 (TNKS1, PARP5a), ART domain, residues 1104-1314; also called PARP5a; not shown: His6, N-terminal, cleaved
Consider B1, for which, in data set [2], the binding result is listed as “binds”.
